Measurements reported in US20210137886A1, “INHIBITORS OF METALLO-BETA-LACTAMASES” (Oxford University Innovation Limited, priority 2017, published 2021).

Legend:
[1] = system: Klebsiella pneumoniae IMP-4; assay: Meropenem MIC, CLSI broth or agar microdilution, strain entry 1; format: cell-based
[2] = system: E. coli IMP-4; assay: Meropenem MIC, CLSI broth or agar microdilution, strain entry 2; format: cell-based
[3] = system: E. coli VIM-1; assay: Meropenem MIC, CLSI broth or agar microdilution, strain entry 3; format: cell-based; conditions: strain entry 3, E. coli VIM-1
Description: (§1) In each case DMSO was used to dissolve inhibitors.

[4] = system: Klebsiella pneumoniae VIM-1; assay: Meropenem MIC, CLSI broth or agar microdilution, strain entry 4; format: cell-based
[5] = system: Pseudomonas aeruginosa VIM-2; assay: Meropenem MIC, CLSI broth or agar microdilution, strain entry 5; format: cell-based; conditions: strain entry 5, Pseudomonas aeruginosa VIM-2
Description: as §1

[6] = system: Klebsiella pneumoniae NDM-1; assay: Meropenem MIC, CLSI broth or agar microdilution, strain entry 6; format: cell-based; conditions: strain entry 6, Klebsiella pneumoniae NDM-1
Description: as §1

[7] = system: Klebsiella pneumoniae NDM-1 + DHA + CTX − M-15; assay: Meropenem MIC, CLSI broth or agar microdilution, strain entry 7; format: cell-based
[8] = target: VIM-2 (Veronese metallo-β-lactamase-2) (Escherichia coli, UniProt Q5U7L7); assay: Metallo-β-lactamase enzyme inhibition, standard assay protocol
[9] = target: IMP-1 (Imipenemase-1) (Serratia marcescens, UniProt P52699); assay: as above
Sequence of IMP-1 (Imipenemase-1) (P52699 19-246, looked up, species assumed): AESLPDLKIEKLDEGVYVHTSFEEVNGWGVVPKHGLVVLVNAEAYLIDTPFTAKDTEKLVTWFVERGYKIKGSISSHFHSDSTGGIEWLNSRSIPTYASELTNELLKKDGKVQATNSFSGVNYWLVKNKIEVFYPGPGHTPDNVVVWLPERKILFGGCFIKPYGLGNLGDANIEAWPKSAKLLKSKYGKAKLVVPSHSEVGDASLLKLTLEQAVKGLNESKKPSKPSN

[10] = target: NDM-1 (New Delhi metallo-β-lactamase-1) (Klebsiella pneumoniae, UniProt C7C422); assay: as above
Sequence of NDM-1 (New Delhi metallo-β-lactamase-1) (C7C422 29-270, looked up, species assumed): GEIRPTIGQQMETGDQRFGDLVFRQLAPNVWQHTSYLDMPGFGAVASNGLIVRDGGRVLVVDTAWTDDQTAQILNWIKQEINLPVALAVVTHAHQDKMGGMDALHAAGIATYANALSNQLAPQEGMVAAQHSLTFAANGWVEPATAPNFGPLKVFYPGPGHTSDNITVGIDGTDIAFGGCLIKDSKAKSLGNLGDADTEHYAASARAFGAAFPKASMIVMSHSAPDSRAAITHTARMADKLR

[11] = target: VIM-1 (Veronese metallo-β-lactamase-1) (Pseudomonas aeruginosa, UniProt A0A0F7KYQ8); assay: as above

Change in MIC value of meropenem ([1]; 2 mg/L inhibitor) | Change in MIC value of meropenem ([1]; 4 mg/L inhibitor) | Change in MIC value of meropenem ([1]; 8 mg/L inhibitor) | Change in MIC value of meropenem ([2]; 2 mg/L inhibitor) | Change in MIC value of meropenem ([2]; 4 mg/L inhibitor) | Change in MIC value of meropenem ([2]; 8 mg/L inhibitor) | Change in MIC value of meropenem ([3]; 2 mg/L inhibitor) | Change in MIC value of meropenem ([3]; 4 mg/L inhibitor) | Change in MIC value of meropenem ([3]; 8 mg/L inhibitor) | Change in MIC value of meropenem ([4]; 2 mg/L inhibitor) | Change in MIC value of meropenem ([4]; 4 mg/L inhibitor) | Change in MIC value of meropenem ([4]; 8 mg/L inhibitor) | Change in MIC value of meropenem ([5]; 2 mg/L inhibitor) | Change in MIC value of meropenem ([5]; 4 mg/L inhibitor) | Change in MIC value of meropenem ([5]; 8 mg/L inhibitor) | Change in MIC value of meropenem ([6]; 2 mg/L inhibitor) | Change in MIC value of meropenem ([6]; 4 mg/L inhibitor) | Change in MIC value of meropenem ([6]; 8 mg/L inhibitor) | Change in MIC value of meropenem ([7]; 2 mg/L inhibitor) | Change in MIC value of meropenem ([7]; 4 mg/L inhibitor) | SMILES | further results
−2 log2 difference | −2 log2 difference | −2 log2 difference | −2 log2 difference | −2 log2 difference | −2 log2 difference | −1 log2 difference | −1 log2 difference | −1 log2 difference | −2 log2 difference | −2 log2 difference | −2 log2 difference | 0 log2 difference | 0 log2 difference | 0 log2 difference | −1 log2 difference | −1 log2 difference | −2 log2 difference | −2 log2 difference | −2 log2 difference | O=C(O)c1[nH]c2c(C3CC3)csc2c1-c1ccc(F)cc1 [Example 13, 3-cyclopropyl-6-(4-fluorophenyl)-4H-thieno-[3,2-b]pyrrole-5-carboxylic acid] | Change in MIC value of meropenem ([7]; 8 mg/L inhibitor): −2 log2 difference; IC50 [8]: 0.0794 µM; IC50 [9]: 0.398 µM; IC50 [10]: 0.0501 µM; IC50 [11]: 1.58 µM
−1 log2 difference | −1 log2 difference | −1 log2 difference | −1 log2 difference | −1 log2 difference | −1 log2 difference | −1 log2 difference | −1 log2 difference | −1 log2 difference | −1 log2 difference | −1 log2 difference | −1 log2 difference | 0 log2 difference | 0 log2 difference | 0 log2 difference | −1 log2 difference | −1 log2 difference | −2 log2 difference | −2 log2 difference | −2 log2 difference | NS(=O)(=O)c1ccc(-c2c(C(=O)O)[nH]c3c(Br)csc23)cc1 [Example 14, 3-bromo-6-(4-sulfamoylphenyl)-4H-thieno-[3,2-b]pyrrole-5-carboxylic acid] | Change in MIC value of meropenem ([7]; 8 mg/L inhibitor): −3 log2 difference; IC50 [8]: 0.158 µM; IC50 [9]: 1.26 µM; IC50 [10]: 0.0631 µM; IC50 [11]: 3.16 µM
